In patent US5635509A, “Piperidine derivatives useful as neurokinin antagonists” (Zeneca Limited, priority 1994, dated 1997):
pKi: −log10 of the molar value. Where a name gives a salt, the structure may show the parent alone.

Legend:
human NK2 receptor = biological target: T1, human NK2 receptor (Homo sapiens, UniProt P21452); assay: Neurokinin A (NKA) Receptor-binding Assay (Test A); conditions: typically found
T1 construct: expressed in transfected cells; host or cells: Mouse Erythroleukemia (MEL) cells
T1 sequence (P21452 1-398): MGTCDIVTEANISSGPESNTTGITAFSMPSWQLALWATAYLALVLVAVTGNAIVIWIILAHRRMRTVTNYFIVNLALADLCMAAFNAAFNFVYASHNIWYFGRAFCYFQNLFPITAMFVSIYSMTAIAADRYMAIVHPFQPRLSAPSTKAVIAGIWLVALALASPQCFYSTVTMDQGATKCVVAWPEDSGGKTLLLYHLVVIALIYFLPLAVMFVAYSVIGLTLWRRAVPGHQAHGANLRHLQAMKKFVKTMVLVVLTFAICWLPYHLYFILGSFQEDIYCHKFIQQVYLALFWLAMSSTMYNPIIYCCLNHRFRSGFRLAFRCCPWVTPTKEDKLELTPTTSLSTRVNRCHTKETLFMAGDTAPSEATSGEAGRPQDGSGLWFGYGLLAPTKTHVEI
Text: Neurokinin A (NKA) Receptor-binding Assay (Test A)

guinea pig trachea = biological target: T2, guinea pig trachea (Cavia porcellus, UniProt Q64077); assay: Guinea Pig Assay (Test B), functional assay in guinea pig trachea, antagonism of NKA or [β-ala8]-NKA(4-10) contraction; assay type: cell-based; conditions: -log molar KB, agonist NKA or [β-ala8]-NKA(4-10), 30 min incubation
T2 construct: The trachea are removed, trimmed of excess tissue and divided into two segments; from tissue; host or cells: guinea pig trachea rings
T2 sequence (Q64077 1-402): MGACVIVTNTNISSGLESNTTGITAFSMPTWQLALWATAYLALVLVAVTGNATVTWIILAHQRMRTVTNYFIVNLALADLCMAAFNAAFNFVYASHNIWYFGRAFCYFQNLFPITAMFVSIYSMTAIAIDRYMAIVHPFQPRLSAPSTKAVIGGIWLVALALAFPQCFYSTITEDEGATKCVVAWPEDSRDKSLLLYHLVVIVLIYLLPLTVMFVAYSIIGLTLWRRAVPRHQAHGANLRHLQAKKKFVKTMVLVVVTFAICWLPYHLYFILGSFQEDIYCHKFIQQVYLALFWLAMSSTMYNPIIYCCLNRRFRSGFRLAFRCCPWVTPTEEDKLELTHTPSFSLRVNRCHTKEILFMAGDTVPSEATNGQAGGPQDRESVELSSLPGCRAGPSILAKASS
Procedure: Guinea Pig Assay (Test B)
The chosen agonist is refered to as AG throughout the description.
Male guinea pigs are killed by a sharp blow to the back of the head. The trachea are removed, trimmed of excess tissue and divided into two segments. Each segment is suspended as a ring between stainless steel stirrups in water-jacketed (37.5° C.) tissue baths containing a physiological salt solution of the following composition (mM): NaCl, 119; KCl 4.6; CaCl2, 1.8; MgCl2, 0.5; NaH2 PO4, 1; NaHCO3, 25; glucose, 11; thiorphan, 0.001; and indomethacin, 0.005; gassed continuously with 95% O2 -%5 CO2. […] Contractile responses are measured on a Grass polygraph via Grass FT-03 force transducers.
Tissues are challenged repetitively with a single concentration of AG (10 nM) with intervening 30 min periods with washing to allow the tension to return to baseline levels. […] Percent inhibition is determined when a Compound produces a statistically significant (p<0.05) reduction of the contraction and is calculated using the second contractile response as 100%.
Potencies of selected Compounds are evaluated by calculating apparent dissociation constants (KB) for each concentration tested using the standard equation: […]
where dose ratio=antilog[(AG -log molar EC50 without Compound)--(AG -log molar EC50 with Compound)]. The KB values may be converted to the negative logarithms and expressed as -log molar KB (i.e. pKB). […]

Row | SMILES | pKi (human NK2 receptor) | Kb (guinea pig trachea)
1 | O[C@@H](c1nccn1-c1ccccc1)[C@H](CCN1CCC(O)(c2ccccc2)CC1)c1ccc(Cl)c(Cl)c1 (racemic) [Example 2, 2-[(1RS,2RS)-2-(3,4-Dichlorophenyl)-1-hydroxy-4-(4-hydroxy-4-phenylpiperidino)butyl]-1-phenylimidazole Hydrochloride] | 7.47 | –
2 | O=C(c1c[nH]nc1-c1ccccc1)C(CCN1CCC(O)(c2ccccc2)CC1)c1ccc(Cl)c(Cl)c1 (centres unmarked) [Example 3, 4-[2-(3,4-Dichlorophenyl)-4-(4-hydroxy-4-phenylpiperidino)butyroyl]-3-phenyl-1H-pyrazole] | – | 251 nM
